Data taken from patent US20130143795A1, “METHOD OF TREATMENT OF HIV OR AIDS” (Adistem Ltd., priority 2010, published 2013).
Values joined by “and” are separate entries in the source; they are usually repeats but may differ in a detail not shown here. Equal entries are not always repeated.

Legend:
[1] = test system: CCR5 coreceptor-trophic BaL subtype B strain of HIV-1; experiment: Antiviral assay in fresh human PBMCs, HIV-1 BaL; format: cell-based; details: for antiviral activity against HIV-1 BaL (macrophage tropic): concentrations up to a high test concentration of 500 μM
Method: (§1) The peptide Ac-LKKTETQ-OH was evaluated in fresh human peripheral blood mononuclear cells (PBMCs) against CXCR4 coreceptor-trophic HT/92/599 and the CCR5 coreceptor-trophic BaL subtype B strains of HIV-1. The peptide was added to the cells at 8 hours prior to infection and immediately prior to infection. The AZT control compound was evaluated in parallel with the peptide and yielded EC50 values of 8 and 6 nM against HIV-1HT/92/599 and values of 6 and 10 nM against HIV-1PaL.

HIV = experiment: Pilot trial: HIV viral load (by PCR); format: in vivo
Method: (§2) The peptide Ac-LKKTETQ-OH was the active therapeutic agent investigated in a pilot trial on twenty similar HIV positive men and women, some who had progressed to severe AIDS.
(§3) Each man or women was injected subcutaneously with a composition comprising the peptide Ac-LKKTETQ-OH (10 mg), once a week for 12 weeks. Blood tests for CD4 and CD8-positive cells and HIV viral load (by PCR) and routine pathology were conducted at baseline, 8 weeks and 12 weeks. […] A small drop in blood glucose was seen but this was not determined to be significant.

[2] = Pilot trial: routine pathology and adverse effects; format: in vivo, human; details: 10 mg s.c. once a week for 12 weeks
Method: as §2, §3

[3] = test system: CD4-positive white blood cell; experiment: Pilot trial: CD4-positive white blood cell counts; format: in vivo, human
Method: as §2, §3

[4] = test system: CD8-positive white blood cell; experiment: Pilot trial: CD8-positive white blood cell counts; format: in vivo, human
Method: as §2, §3

Pilot trial: body weight = format: in vivo, human; details: HIV positive patients, 10 mg s.c. once a week, one value per patient (A-T)
Method: as §2, §3

[5] = test system: CXCR4 coreceptor-trophic HT/92/599 strain of HIV-1; experiment: Antiviral assay in fresh human PBMCs, HIV-1 HT/92/599; format: cell-based; details: for antiviral activity against HIV-1 HT/92/599 (T-cell tropic): concentrations up to a high test concentration of 500 μM
Method: as §1

[6] = HIV positive patients and those showing symptoms of AIDS
[7] = HIV positive patients, 10 mg s.c. once a week, 8 weeks, one value per patient (A-T)
[8] = HIV positive patients, 10 mg s.c. once a week, 12 weeks, one value per patient (A-T)

Compound | antiviral activity against HIV-1 BaL (macrophage tropic) ([1]; listed as SEQ ID NO: 1) | antiviral activity against HIV-1 BaL (macrophage tropic) ([1]; listed as SEQ ID NO:1) | viral load (summary) (HIV; [6]) | HIV Viral Load, 8 weeks (HIV; HIV positive patients, 10 mg s.c. once a week, 8 weeks, by PCR, one value per patient (A-T)) | HIV Viral Load, 12 weeks (HIV; HIV positive patients, 10 mg s.c. once a week, 12 weeks, by PCR, one value per patient (A-T)) | adverse effect [2] | Hemoglobin levels, Creatinine, ALT, AST, Alkaline Phos, Bilirubin, GGT, Albumin, Total Protein and globulin tests ([2]; baseline, 8 and 12 weeks) | blood glucose ([2]; not determined to be significant) | CD4 positive white blood cell counts (summary) [3, 6] | CD4-positive white blood cell count, 8 weeks [3, 7] | CD4-positive white blood cell count, 12 weeks [3, 8] | CD8 positive white blood cell counts (summary) [4, 6] | CD8-positive white blood cell count, 8 weeks [4, 7] | CD8-positive white blood cell count, 12 weeks [4, 8] | Weight, 8 weeks (Pilot trial: body weight; 8 weeks) | Weight, 12 weeks (Pilot trial: body weight; 12 weeks) | antiviral activity against HIV-1 HT/92/599 (T-cell tropic) ([5]; listed as SEQ ID NO: 1) | antiviral activity against HIV-1 HT/92/599 (T-cell tropic) ([5]; listed as SEQ ID NO:1) | EC50 ([1]; two values, evaluated in parallel with peptide added 8 hours prior to and immediately prior to infection, read-out: EC50 against HIV-1PaL) | EC50 ([5]; two values, evaluated in parallel with peptide added 8 hours prior to and immediately prior to infection, read-out: EC50 against HIV-1HT/92/599)
Ac-LKKTETQ-OH [Ac-LKKTETQ-OH] | no effect | did not demonstrate antiviral activity | decreased viral load significantly | undetectable (9×) and 28410 copies/ml and 450 copies/ml and 8214 copies/ml and 17616 copies/ml and 15201 copies/ml and 145 copies/ml and 12004 copies/ml and 8781 copies/ml and 200 copies/ml and 98687 copies/ml and 24 copies/ml | undetectable (19×) and 5151 copies/ml | No adverse effect | did not show anything remarkable | small drop | increased | 816 and 415 and 158 and 407 and 456 and 477 and 348 and 381 and 439 and 301 and 335 and 543 and 428 and 466 (2×) and 259 and 471 and 300 and 316 and 602 | 879 and 604 and 175 and 425 and 625 and 662 and 404 and 498 and 510 and 424 and 452 and 749 and 616 and 602 and 368 and 469 and 571 and 430 and 416 and 675 | increased | 980 and 360 and 1310 and 1379 and 1044 and 1296 and 959 and 2120 and 866 and 773 and 594 (2×) and 606 and 939 and 617 and 648 and 456 and 1108 and 1125 | 1330 and 459 and 1718 and 1394 and 1339 and 1226 and 1190 and 2647 and 958 and 800 and 712 and 893 and 983 and 1034 and 880 and 890 and 521 and 1384 and 1201 and 660 | 92 and 52 and 59 and 71 and 82 and 79 (2×) and 72 (2×) and 60.5 and 50.5 and 58 and 71.5 and 68.5 and 61 and 56 and 55 and 70 and 78 (2×) | 92 and 52 and 72 (4×) and 82 and 79 and 71 (2×) and 51 and 65 and 80 and 69 and 60 and 55 and 58 and 70.5 and 78.5 (2×) | no effect | did not demonstrate antiviral activity | – | –
Cc1cn([C@H]2C[C@H](N=[N+]=[N-])[C@@H](CO)O2)c(=O)[nH]c1=O [AZT, reference compound] | – | – | – | – | – | – | – | – | – | – | – | – | – | – | – | – | – | – | 6 nM and 10 nM | 8 nM and 6 nM
